Data set [1] is described as follows: Reversal fold, ratio of adriamycin IC50 to adriamycin IC50 in presence of 0.1 uM test compound for reversal of adriamycin-mediated resistance in human MCF7/ADM cells by MTT method. It counts as functional. A general note: Formazan colour is commonly taken as a measure of viable cells.
For data set [2], the system named is MCF7/ADM. The data set can be described thus: Inhibition of cell migration in human MCF7/ADM cells at 0.1 uM incubated for 24 to 48 hrs in the presence of adriamycin by Wound healing assay. It is filed as functional, cell-based. The following applies: time 24-48 hrs.
In data set [3] the test system is MCF7/ADM. The data set can be described thus: Antitumor activity against human MCF7/ADM cells xenografted in BABL/c mouse assessed as decrease in tumor volume at 2 mg/kg, ip administered once every 3 days for 25 days in the presence of adriamycin. It counts as functional, organism-based. The following applies: time 25.0 day. On the technique in general: Xenograft models place foreign cells or tissue in a host animal.

The nature of data set [4]: Antitumor activity against human MCF7/ADM cells xenografted in BABL/c mouse assessed as tumor growth inhibition at 2 mg/kg, ip administered once every 3 days for 25 days in the presence of adriamycin relative to control. It is filed as functional. Conditions: 600 h, time 25 day, read-out: TGI.
Data set [5] in a line: Toxicity in Balb/c mouse xenografted with human MCF7/ADR cells assessed as kidney cell necrosis at 2 mg/kg, ip administered once every 3 days for 25 days in presence of adriamycin by H&E staining based analysis. It is filed as organism-based, NCI/ADR-RES. The following applies: in vivo, 600 h, time 25 day.
The test system of data set [6] is MCF7/ADM. Description: Inhibition of cell invasion in human MCF7/ADM cells at 0.1 uM incubated for 24 hrs in the presence of adriamycin by Transwell assay. It counts as functional, cell-based.
In data set [7] the test system is MCF7/ADM. The data set can be described thus: Antitumor activity against human MCF7/ADM cells xenografted in BABL/c mouse assessed as decrease in tumor weight at 2 mg/kg, ip administered once every 3 days for 25 days in the presence of adriamycin. The following applies: time 25.0 day. It is filed as functional, organism-based.
The nature of data set [8]: Toxicity in Balb/c mouse xenografted with human MCF7/ADR cells assessed as liver cell necrosis at 2 mg/kg, ip administered once every 3 days for 25 days in presence of adriamycin by H&E staining based analysis. It is filed as organism-based, NCI/ADR-RES. The following applies: in vivo, 600 h, time 25 day.
For data set [9], the target named is ATP-dependent translocase ABCB1 (Homo sapiens, UniProt P08183). Description: Inhibition of P-gp-mediated rhodamine-123 efflux in human MCF7/ADM cells assessed as increase in fluorescence intensity at 0.1 uM incubated for 6 hrs followed by Rh123 addition for 3 hrs by Fluorescence microplate reader analysis. It is filed as cell-based. The following applies: 9 h.
ATP-dependent translocase ABCB1, sequence (P08183 whole entry): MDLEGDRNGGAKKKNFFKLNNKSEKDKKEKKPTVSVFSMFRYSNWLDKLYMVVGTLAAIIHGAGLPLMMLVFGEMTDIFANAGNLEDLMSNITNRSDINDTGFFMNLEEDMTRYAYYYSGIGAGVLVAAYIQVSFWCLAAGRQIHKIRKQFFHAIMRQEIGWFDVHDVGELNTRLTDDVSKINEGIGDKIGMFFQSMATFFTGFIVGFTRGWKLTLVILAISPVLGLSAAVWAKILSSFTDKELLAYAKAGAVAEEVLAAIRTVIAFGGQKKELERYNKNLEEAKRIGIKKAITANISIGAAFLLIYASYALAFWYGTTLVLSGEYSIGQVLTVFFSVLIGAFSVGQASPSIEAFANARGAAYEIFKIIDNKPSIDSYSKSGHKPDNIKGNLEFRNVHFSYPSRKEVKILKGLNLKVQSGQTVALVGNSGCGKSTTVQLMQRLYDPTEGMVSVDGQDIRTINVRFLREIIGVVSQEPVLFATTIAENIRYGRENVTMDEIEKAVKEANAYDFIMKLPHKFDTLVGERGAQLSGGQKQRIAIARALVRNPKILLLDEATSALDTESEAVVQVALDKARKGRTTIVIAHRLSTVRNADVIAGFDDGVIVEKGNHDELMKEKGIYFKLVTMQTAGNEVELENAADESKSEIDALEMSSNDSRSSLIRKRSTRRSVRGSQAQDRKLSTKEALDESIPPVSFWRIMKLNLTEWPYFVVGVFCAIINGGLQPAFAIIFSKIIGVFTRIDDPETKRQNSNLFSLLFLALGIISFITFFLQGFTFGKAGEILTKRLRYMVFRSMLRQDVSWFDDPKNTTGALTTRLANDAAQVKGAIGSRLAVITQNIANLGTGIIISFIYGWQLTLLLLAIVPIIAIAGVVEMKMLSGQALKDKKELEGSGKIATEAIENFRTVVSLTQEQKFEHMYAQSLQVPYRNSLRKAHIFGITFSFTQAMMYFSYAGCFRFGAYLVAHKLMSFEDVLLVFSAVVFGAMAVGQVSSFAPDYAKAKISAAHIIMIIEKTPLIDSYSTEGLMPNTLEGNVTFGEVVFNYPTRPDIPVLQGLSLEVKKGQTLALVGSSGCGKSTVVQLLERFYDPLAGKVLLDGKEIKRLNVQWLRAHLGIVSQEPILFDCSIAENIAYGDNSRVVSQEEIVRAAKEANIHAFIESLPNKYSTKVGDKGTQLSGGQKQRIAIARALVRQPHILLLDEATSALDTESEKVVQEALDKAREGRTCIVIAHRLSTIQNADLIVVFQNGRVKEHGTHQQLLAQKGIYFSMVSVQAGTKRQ

In data set [10] the test system is MCF7/ADM. Description: Antitumor activity against human MCF7/ADM cells xenografted in BABL/c mouse assessed as increase in tumor degeneration at 2 mg/kg, ip administered once every 3 days for 25 days in the presence of adriamycin by H&E staining based analysis. The following applies: time 25.0 day. It is filed as functional, organism-based.
For data set [11], the system named is MCF7/ADM. Description: Antitumor activity against human MCF7/ADM cells xenografted BABL/c mouse model assessed as increase in tumor necrosis at 2 mg/kg, ip administered once every 3 days for 25 days in the presence of adriamycin by H&E staining based analysis. It counts as functional, organism-based. The following applies: time 25.0 day.
For data set [12], the system named is MCF7/ADM. The data set can be described thus: Inhibition of colony formation in human MCF7/ADM cells at 0.1 uM incubated for 15 days with fresh media replacement for every 2 days in the presence of adriamycin by crystal violet staining based imaging analysis. It is filed as functional, cell-based. The following applies: time 15.0 day.
Data set [13] deals with MCF7/ADM. Description: Effect on P-gp expression in human MCF7/ADM cells at 0.1 uM by Western blot analysis. It is filed as functional, cell-based. In general terms: Immunoblotting shows a protein as a band on a membrane.
Data set [14] has as its system MCF7/ADM. Description: Induction of apoptosis in human MCF7/ADM cells incubated for 48 hrs in presence of adriamycin by Annexin V-FITC/PI staining based flow cytometric analysis. It counts as functional, cell-based. The following applies: dose 0.1-1 µM.
Data set [15] in a line: Toxicity in Balb/c mouse xenografted with human MCF7/ADR cells assessed as kidney cell necrosis at 10 mg/kg, ip administered once every 3 days for 25 days by H&E staining based analysis. It is filed as organism-based, NCI/ADR-RES. Conditions: in vivo, 600 h, time 25 day.
Data set [16] in a line: Toxicity in Balb/c mouse xenografted with human MCF7/ADR cells assessed as liver cell necrosis at 10 mg/kg, ip administered once every 3 days for 25 days by H&E staining based analysis. It counts as organism-based, NCI/ADR-RES. Conditions: in vivo, 600 h, time 25 day.

Active and inactive are the calls of the source. The calls are words filed in the database; no cut-off is given here.

Turning to `COc1ccc(Nc2ncnc3ccc(-c4ccc(C(=O)NCCN5CCc6cc(OC)c(OC)cc6C5)cc4)cc23)cc1F`, the “Ratio IC50” value in data set [1] is 25.2.
On the same count and under the same terms, as for `COc1cc2c(cc1OC)CN(CCNC(=O)c1ccc(-c3ccc4ncnc(NCc5cccc(F)c5)c4c3)cc1)CC2`, the figure is 22.2; as for `COc1cc2c(cc1OC)CN(CCNC(=O)c1ccc(-c3ccc4ncnc(NCc5cccc(Cl)c5)c4c3)cc1)CC2`, 1.5.
Still for that read-out and setting: as for `COC(=O)c1cccc(Nc2ncnc3ccc(-c4ccc(C(=O)NCCN5CCc6cc(OC)c(OC)cc6C5)cc4)cc23)c1`, the figure is 2.4.
For the molecule `COc1cc2c(cc1OC)CN(CCNC(=O)c1ccc(-c3ccc4ncnc(Nc5ccc(C)cc5)c4c3)cc1)CC2`, the “Ratio IC50” value in [1] worked out at 3.1.
Same read-out and setting: under `COc1cc2c(cc1OC)CN(CCNC(=O)c1ccc(-c3ccc4ncnc(Nc5cccc(C#N)c5)c4c3)cc1)CC2` stands 2.5; under `COc1cc2c(cc1OC)CN(CCNC(=O)c1ccc(-c3ccc4ncnc(Nc5ccc(F)cc5)c4c3)cc1)CC2`, 14.1.
With `COc1cc2c(cc1OC)CN(CCNC(=O)c1ccc(-c3ccc4ncnc(NCc5ccc(F)cc5)c4c3)cc1)CC2`, in [1], the “Ratio IC50” value worked out at 12.1.
As for `COc1cc2c(cc1OC)CN(CCNC(=O)c1ccc(-c3ccc4ncnc(NCc5ccc(Cl)cc5)c4c3)cc1)CC2`, the “Ratio IC50” value in data set [1] turned out to be 9.3.
As to `COc1cc2c(cc1OC)CN(CCNC(=O)c1ccc(-c3ccc4ncnc(Nc5ccccc5Cl)c4c3)cc1)CC2`, the “Ratio IC50” value in data set [1] is 13.3.
Same read-out and setting: as for `COc1cc2c(cc1OC)CN(CCNC(=O)c1ccc(-c3ccc4ncnc(Nc5cccc(F)c5)c4c3)cc1)CC2`, the figure is 5.3.
In the case of `COC(=O)c1ccc(Nc2ncnc3ccc(-c4ccc(C(=O)NCCN5CCc6cc(OC)c(OC)cc6C5)cc4)cc23)cc1`, the “Ratio IC50” value in [1] is 10.1.
As to `COc1cc2c(cc1OC)CN(CCNC(=O)c1ccc(-c3ccc4ncnc(Nc5ccc(Cl)cc5)c4c3)cc1)CC2`, the “Ratio IC50” value in [1] turned out to be 4.3.
On to `COc1cc2c(cc1OC)CN(CCNC(=O)c1ccc(-c3ccc4ncnc(Nc5ccccc5F)c4c3)cc1)CC2`, for which the “Ratio IC50” value in [1] is given as 2.4.
On to `COc1cc2c(cc1OC)CN(CCNC(=O)c1ccc(-c3ccc4ncnc(Nc5ccc(Br)cc5)c4c3)cc1)CC2`, for which, in data set [1], the “Ratio IC50” value is listed as 16.3.
For the molecule `COc1cc2c(cc1OC)CN(CCNC(=O)c1ccc(-c3ccc4ncnc(Nc5cccc(Br)c5)c4c3)cc1)CC2`, the “Ratio IC50” value in data set [1] is recorded as 3.4.
Consider `COc1cc2c(cc1OC)CN(CCc1ccc(NC(=O)c3cc(OC)c(OC)cc3NC(=O)c3cnc4ccccc4c3)cc1)CC2` [TARIQUIDAR], for which the inhibition entry in [2] and in [6] was “Active” in each case. The outcome in data set [3] and in data set [7] was Active. Further, the inhibition in vivo at 2 mg/kg in data set [4] stood at 49.4%. Besides, the “Ratio IC50” value in [1] came out at 11. The Activity result in data set [5] and in data set [8] was “Non-Toxic” in each case. Besides, in data set [9], the “inhibition (INH)” value is on record as “Active”.
Turning to `COc1cc2c(cc1OC)CN(CCNC(=O)c1ccc(-c3ccc4ncnc(Nc5ccccc5Br)c4c3)cc1)CC2`, the “Ratio IC50” value in [1] is reported as 16.6.
On the same count and under the same terms, under `COc1cccc(Nc2ncnc3ccc(-c4ccc(C(=O)NCCN5CCc6cc(OC)c(OC)cc6C5)cc4)cc23)c1` stands 1.3.
Still for that read-out and setting: under `COc1cc2c(cc1OC)CN(CCNC(=O)c1ccc(-c3ccc4ncnc(Nc5cccc(Cl)c5)c4c3)cc1)CC2` stands 11.6; under `COc1cc2c(cc1OC)CN(CCNC(=O)c1ccc(-c3ccc4ncnc(NCc5cccc(Br)c5)c4c3)cc1)CC2`, 1.2.
For the molecule `COc1ccccc1Nc1ncnc2ccc(-c3ccc(C(=O)NCCN4CCc5cc(OC)c(OC)cc5C4)cc3)cc12`, the inhibition entry in data set [2], in data set [12] and in [6] was “Active” in each case. In addition, the outcome in data set [10], in data set [11], in data set [3] and in [7] was Active. For the same molecule, in data set [4], the inhibition in vivo at 2 mg/kg worked out at 69.7%. Also, the “Ratio IC50” value in data set [1] came out at 83.4. Also, the Activity entry in data set [5] was “Non-Toxic”; in data set [14], “Dose-Dependent Effect”; in data set [8], “Non-Toxic”. Also, the outcome in [13] was inactive. Also, in data set [9], the “inhibition (INH)” value was “Active”.
Consider `COc1cc2c(cc1OC)CN(CCNC(=O)c1ccc(-c3ccc4ncnc(NCc5ccccc5)c4c3)cc1)CC2`, for which, in data set [1], the “Ratio IC50” value was found to be 3.3.
On to `COc1cc2c(cc1OC)CN(CCNC(=O)c1ccc(-c3ccc4ncnc(Nc5ccccc5)c4c3)cc1)CC2`, for which the “Ratio IC50” value in data set [1] is 3.5.
The same measure, in the same setting: as for `COc1cc2c(cc1OC)CN(CCNC(=O)c1ccc(-c3ccc4ncnc(Nc5ccccc5C)c4c3)cc1)CC2`, the figure is 41.3; as for `COc1cc2c(cc1OC)CN(CCNC(=O)c1ccc(-c3ccc4ncnc(Nc5cccc(C)c5)c4c3)cc1)CC2`, 24.3; as for `COc1cc2c(cc1OC)CN(CCNC(=O)c1ccc(-c3ccc4ncnc(NCc5ccccc5F)c4c3)cc1)CC2`, 7.2.
In the case of `COc1cccc2c1C(=O)c1c(O)c3c(c(O)c1C2=O)C[C@@](O)(C(=O)CO)C[C@@H]3O[C@H]1C[C@H](N)[C@H](O)[C@H](C)O1.Cl` [DOXORUBICIN HYDROCHLORIDE], the Activity entry in [15] and in data set [16] was “Non-Toxic” throughout.

The values are drawn from ChEMBL document CHEMBL5537148, “Discovery of (quinazolin-6-yl)benzamide derivatives containing a 6,7-dimethoxy-1,2,3,4-tetrahydroisoquinoline moiety as potent reversal agents against P-glycoprotein-mediated multidrug resistance” (Eur J Med Chem, 2024).
